The values that follow come from US20100158808A1, “Altered Activity of Toll-Like Receptors” (priority 2003, published 2010).

The test system of one series is mice. Kind of series: Experimental shock model (SIRS), D-galactosamine, i.p. injection. Type of series: in vivo. Particulars: for Survival in shock model: mice, i.p. with D-galactosamine. Here is the method:
Experimental shock model. Age- and sex-matched mice were injected with 5 mg of HS, 5 μg of LPS, 5 μg of Limulus anti-LPS factor, 5 mg of chondroitin sulfate, 200 U (−5 mg) heparin, 150 μg of CpG DNA, 1.5 U of elastase, or PBS mixed with 20 mg of D-galactosamine in a total volume of 500 μl of PBS by i.p. injection as previously described (Franks et al. (1991) Infect. Immun. 59:2609). Concentrations of HS and elastase were calculated by weight of lyophilized powder, and the doses used were near the LD50 based on dose-response experiments. In some experiments, the agonist was mixed with 5 or 20 μg of Limulus anti-LPS factor before injection. For some injections, enzymes were boiled at 100° C. for 60 minutes and vortexed vigorously, or preincubated with elastase inhibitor-1 for 4 hours at room temperature and then mixed with D-galactosamine before injection. Mice were monitored every hour for 48 hours and then euthanized.
During sepsis, Gram-negative bacteria shed LPS, which activates TLR4 on cells that then release inflammatory cytokines mediating systemic inflammation and death (Beutler (2000) Curr. Opin. Immunol. 12:20). To determine whether soluble HS can induce a model of systemic inflammatory response syndrome (SIRS) via activation of TLR4 in mice, HS was administered by i.p. injection to TLR4 wild type and mutant mice. This mouse model system has been used to study shock and a sepsis-like syndrome in response to microbial toxins (Galanos et al. (1979) Proc. Natl. Acad. Sci. USA 76:5939). […] Moreover, the observed responses were not due to contamination of HS by LPS, since the HS used was not contaminated with LPS.

The target of a further series is T1, TLR4/MD2 complex (Mus musculus, UniProt Q9JHF9+Q9QUK6).
T1 construct: expressed in transfected cells; host or cells: HEK 293 clone HEK/TLR4(+)
T1 sequence (Q9QUK6 26-835): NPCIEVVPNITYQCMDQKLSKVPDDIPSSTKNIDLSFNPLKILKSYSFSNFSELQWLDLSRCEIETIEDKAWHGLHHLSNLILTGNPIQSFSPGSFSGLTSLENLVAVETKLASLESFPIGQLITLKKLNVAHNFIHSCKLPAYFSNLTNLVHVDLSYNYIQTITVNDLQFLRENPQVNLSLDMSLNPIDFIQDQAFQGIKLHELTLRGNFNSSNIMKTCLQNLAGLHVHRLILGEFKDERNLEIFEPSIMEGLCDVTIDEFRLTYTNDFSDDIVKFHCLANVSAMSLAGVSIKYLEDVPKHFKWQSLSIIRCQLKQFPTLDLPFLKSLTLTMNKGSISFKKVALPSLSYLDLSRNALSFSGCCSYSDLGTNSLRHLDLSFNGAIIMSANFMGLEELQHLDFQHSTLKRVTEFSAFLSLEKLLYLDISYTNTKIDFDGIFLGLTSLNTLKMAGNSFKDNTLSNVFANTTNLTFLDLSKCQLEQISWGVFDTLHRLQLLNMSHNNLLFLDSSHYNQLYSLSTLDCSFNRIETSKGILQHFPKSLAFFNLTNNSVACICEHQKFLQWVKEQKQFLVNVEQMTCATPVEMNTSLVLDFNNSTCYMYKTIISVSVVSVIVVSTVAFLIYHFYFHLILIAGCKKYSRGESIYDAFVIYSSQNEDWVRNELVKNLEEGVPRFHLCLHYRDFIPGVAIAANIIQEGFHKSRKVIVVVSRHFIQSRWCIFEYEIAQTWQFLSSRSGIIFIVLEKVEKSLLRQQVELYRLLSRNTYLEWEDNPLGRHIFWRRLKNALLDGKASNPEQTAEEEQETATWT
T1 sequence (Q9JHF9 19-160): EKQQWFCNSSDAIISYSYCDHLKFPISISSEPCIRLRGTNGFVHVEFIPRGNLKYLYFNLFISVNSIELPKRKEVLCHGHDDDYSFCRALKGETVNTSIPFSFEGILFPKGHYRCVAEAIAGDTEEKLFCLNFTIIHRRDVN
Kind of series: Cell surface expression of TLR4/MD2 in HEK/TLR4(+) cells by flow cytometry. Type of series: cell-based, murine. Here is the method: FIG. 2A is a graph plotting the level of reporter activity in HEK/TLR4(+) cells transfected with NFκB- and control-luciferase reporter plasmids and then stimulated with intact HS or LPS, or with HS or LPS that had been treated with nitrous acid (HNO2) at pH 4.0 or pH 1.5. Controls were treated with PBS vehicle. […] FIG. 2C is a graph showing the effect of PBS, HS, depolymerized HS (nitrous acid, pH 1.5), and recombinant human IL-1α on cell surface expression of TLR4/MD2 in HEK/TLR4(+) cells. Expression of TLR4 on the cell surface was determined by flow cytometry using a monoclonal antibody specific to the TLR4/MD2 complex. Values are the mean of triplicate wells and are representative of three separate experiments.
To determine whether the effect of HS occurred through specific action on TLR4, surface expression of the TLR4/MD2 complex on cells treated with HS was examined. […] Thus, HEK/TLR4(+) cells responded to HS by activating NFκB and mobilizing receptor complexes.
(Flow cytometry measures light scatter and fluorescence of single cells or particles in a stream.)

The target of another series is T2, TLR4 (Mus musculus, UniProt Q9JHF9+Q9QUK6).
T2 sequence (Q9QUK6 26-835): T1 sequence (Q9QUK6 26-835)
T2 sequence (Q9JHF9 19-160): T1 sequence (Q9JHF9 19-160)
Kind of series: NFκB-luciferase reporter assay in HEK 293 cells stably expressing TLR4, MD2 and/or CD14. Also on record: expressed in transfected cells; host or cells: HEK 293. Particulars: HEK 293 cells lacking TLR4 and MD2 or CD14. The class given is cell-based, murine. Here is the method:
Model ECM environment. Tissue culture plates were coated with ECM as follows. PAEC were seeded into 6-well (3×10^5 cells/well), 24-well (5×10^4 cells/well) or 100 mm (2×10^5 cells) fibronectin-coated tissue culture plates (BD Biosciences, San Jose, Calif.) in DMEM (Invitrogen) containing 10% fetal bovine serum supplemented with penicillin and streptomycin and 4% w/v of Dextran 40. The cell cultures were incubated at 37° C. in 5% CO2 humidified atmosphere for seven days and were supplemented with […] on day three and day five. After 7 days, endothelial cells were washed once with phosphate buffered saline (PBS) and lysed by exposure to 0.5% w/v Triton X-100 and 20 mM NH4OH in PBS (pH 7.4) at 37° C. for 20 minutes (Bonifacino, 1998). The wells were then washed 4 times with PBS (pH 7.4) and inspected microscopically to ensure removal of the cells. Plates were used immediately or were stored in PBS (pH 7.4) with […] at 4° C.
HEK 293 cells were stably transfected with the TLR4 and MD2 or CD14 expression plasmids using Superfect (Qiagen, Valencia, Calif.) following the manufacturer's instructions. HEK 293 cells expressing TLR4 and MD2 or CD14 were obtained by culturing the transfected cells with appropriate antibiotic selection medium, and were cloned by limiting dilution in the selection medium. HEK 293 cells expressing TLR4, MD2 and CD14 were generated by transfecting HEK 293 cells that expressed TLR4 and MD2 with the CD14 expression plasmid, and selecting clones using appropriate antibiotic containing medium. Cell lines expressing TLR4 and MD2 and/or CD14 were then maintained in DMEM supplemented with 10% fetal bovine serum and the appropriate selection antibiotics. Control cell lines were transfected with empty expression vectors and incubated in selection conditions as described above. Selected clones were tested for cell surface expression of the TLR4/MD2 complex and CD14 by flow cytometry using monoclonal antibodies specific for the TLR4/MD2 complex or CD14.
NFκB-luciferase reporter assays. Activation of NFκB was measured using a NFκB-luciferase reporter assay. HEK 293 cell lines stably expressing TLR4, MD2 and/or CD14, or control cells were seeded into 24 well tissue culture plates (2×10^5 cells/well) in 1.0 ml DMEM containing 10% fetal bovine serum and penicillin and streptomycin. The cells were allowed to adhere to the culture wells at 37° C. overnight and were then transfected with […] NFκB-firefly-luciferase using Superfect Transfection Reagent (Qiagen). Following transfection, the cells were washed once with phosphate buffered saline and cultured for 24 hours at 37° C. in 1.0 ml DMEM containing 0.5% fetal bovine serum. After various treatments, the culture medium was aspirated and the cells were washed once with PBS. The cells were lysed in […] Passive Lysis Buffer (Promega) with rocking at room temperature for 15 minutes. Renilla- and Firefly-luciferase were assayed simultaneously using the Dual-Luciferase Reporter Assay System (Promega) and a TD-20/20 luminometer (Turner Designs, Sunnyvale, Calif.). Activation of NFκB was reported as a ratio of the firefly luciferase activity to the constitutively expressed Renilla luciferase internal control, and is the mean of triplicate wells.
To determine whether and under what conditions HS stimulates TLR4, various combinations of TLR4, MD2 and CD14, components of the putative TLR4 receptor complex, were stably expressed in HEK 293 cells and the effect of HS on TLR4 signaling in the transfected cells was examined (FIG. 1). The HEK 293 cells expressing receptor components were transiently transfected with a NFκB-firefly luciferase reporter construct along with a Renilla-luciferase internal control reporter construct. […]
(In a reporter assay the amount or activity of a reporter protein is the signal.)

Turning to “Boc-Ala-Ala-Ala-NHO-Bz [elastase inhibitor-1]”, the “Reduction of the death rate after elastase injection” value with mice (elastase preincubated with elastase inhibitor-1 for 4 hours) is 50%.

As for chondroitin sulfate, the “Survival in shock model” value with mice is “all but one mouse”.

For the substance heparin, the “Survival in shock model” value with mice is on record as “survived”. For “recombinant human IL-1α: recombinant human IL-1α, activates NFκB via the IL-1 receptor”, the “Change in surface expression of TLR4/MD2” value with TLR4/MD2 complex is recorded as “did not change”. Further, in the series with TLR4, the “Activation of NFκB-luciferase reporter” value is recorded as “activated”.
